Experiment [1] deals with T-24. Kind of experiment: Antiproliferative activity against human T24 cells assessed as reduction in cell viability incubated for 48 hrs by MTT assay. Format: functional, cell-based. As to conditions: T-24, 48 h. (In general: Tetrazolium assays rely on reduction of a dye to a coloured formazan, in cell work by metabolically active cells.)
The subject of experiment [2] is MGC-803. Kind of experiment: Antiproliferative activity against human MGC803 cells assessed as reduction in cell viability incubated for 48 hrs by MTT assay. The format is functional, cell-based. Particulars: MGC-803, 48 h.
Experiment [3] has as its system L02. Kind of experiment: Cytotoxicity against human HL7702 cells assessed as reduction in cell viability incubated for 48 hrs by MTT assay. Format: cell-based. Particulars: L02, 48 h.
The subject of experiment [4] is HepG2. Kind of experiment: Antiproliferative activity against human HepG2 cells assessed as reduction in cell viability incubated for 48 hrs by MTT assay. The format is functional, cell-based. As to conditions: HepG2, 48 h.
Experiment [5] concerns NCI-H460. Kind of experiment: Antiproliferative activity against human NCI-H460 cells assessed as reduction in cell viability incubated for 48 hrs by MTT assay. As to conditions: NCI-H460, 48 h. The format is functional, cell-based.
Experiment [6] relates to DNA. Kind of experiment: Binding affinity to Escherichia coli supercoiled pBR322 DNA assessed as DNA intercalation at 5 uM after 3 hrs by ethidium bromide staining-based agarose gel electrophoresis analysis. Format: nucleic-acid assay.
Experiment [7] deals with MGC-803. Kind of experiment: Antitumor activity against human MGC803 cells xenografted in BALB/C mouse assessed as tumor growth inhibition at 6 mg/kg, ip administered every other day for 2 weeks measured during compound dosing relative to control. The format is functional. Particulars: MGC-803, ip, 336 h, read-out: TGI.

Each structure is given as a SMILES string. Calls of active or inactive are those of the source. The calls are words filed in the database; no cut-off is given here.

This passage reports IC50, Activity and inhibition in vivo results from ChEMBL document CHEMBL4346660, “Cryptolepine and aromathecin based mimics as potent G-quadruplex-binding, DNA-cleavage and anticancer agents: Design, synthesis and DNA targeting-induced apoptosis” (Eur J Med Chem, 2019).

Consider `COc1cc2c(cc1OC)-c1nc3ccc(C)cc3c(NCCCN(C)C)c1C2`, for which the IC50 – broadly, the midpoint of a concentration-inhibition curve – in experiment [1] was 4640 nM; in experiment [2] it was 5080 nM; in experiment [3], 4940 nM; in experiment [4], 12000 nM; in experiment [5], 5520 nM.

Take `CN(C)CCNc1c2c(nc3ccc(Br)cc13)-c1ccccc1C2`: the half-inhibitory concentration (IC50) in experiment [1] stood at 2210 nM; in experiment [2], 2980 nM; in experiment [3], 6430 nM; in experiment [4], 4180 nM; in experiment [5] it was 2800 nM.

For the compound `CN(C)CCCNc1c2c(nc3ccc(Br)cc13)-c1ccccc1C2`, the IC50 in experiment [1] turned out to be 1360 nM; in experiment [2], 1800 nM; in experiment [3], 1640 nM; in experiment [4] it was 3120 nM; in experiment [5] it was 2020 nM.

Regarding `COc1cc2c(cc1OC)-c1nc3ccc(Cl)cc3c(NCCCN(C)C)c1C2`, the IC50 amounted to 2090 nM in experiment [1]; 1580 nM in experiment [2]; 2600 nM in experiment [3]; 4180 nM in experiment [4]; 1950 nM in experiment [5].

With `COc1cc2c(cc1OC)-c1nc3ccc(F)cc3c(NCCN(C)C)c1C2`, the IC50 amounted to 2200 nM in experiment [1]; 2350 nM in experiment [2]; 4380 nM in experiment [3]; 1770 nM in experiment [4]; 5730 nM in experiment [5].

As for `COc1cc2c(cc1OC)-c1nc3ccccc3c(NCCCN(C)C)c1C2`, the IC50 in experiment [1] was 2470 nM; in experiment [2] it was 5170 nM; in experiment [3] it was 4350 nM; in experiment [4] it was 4600 nM; in experiment [5], 3920 nM.

Regarding `COc1cc2c(cc1OC)-c1nc3ccc(Br)cc3c(NCCN(C)C)c1C2`, the IC50 in experiment [1] worked out at 1530 nM; in experiment [2], 2730 nM; in experiment [3], 6950 nM; in experiment [4], 1610 nM; in experiment [5] it was 2830 nM.

For `Cc1ccc2nc3c(c(NCCCN4CCOCC4)c2c1)Cc1ccccc1-3`, the IC50 in experiment [1] worked out at 580 nM; in experiment [2] it was 1420 nM; in experiment [3], 1670 nM; in experiment [4] it was 1880 nM; in experiment [5], 890 nM.

As to `Fc1ccc2nc3c(c(NCCCN4CCOCC4)c2c1)Cc1ccccc1-3`, the IC50 worked out at 1900 nM in experiment [1]; 2790 nM in experiment [2]; 3050 nM in experiment [3]; 4460 nM in experiment [4]; 6660 nM in experiment [5].

`CC[n+]1c(-c2ccccc2)c2cc(N)ccc2c2ccc(N)cc21`: the result in experiment [6] was Active.

For `COc1cc2c(cc1OC)-c1nc3ccc(Br)cc3c(NCCCN(C)C)c1C2`, the IC50 stood at 4970 nM in experiment [1]; 3660 nM in experiment [2]; 7060 nM in experiment [3]; 6380 nM in experiment [4]; 5730 nM in experiment [5].

Consider `COc1cc2c(cc1OC)-c1nc3ccc(F)cc3c(NCCCN3CCOCC3)c1C2`, for which the IC50 in experiment [1] came to 3740 nM; in experiment [2], 3700 nM; in experiment [3], 3710 nM; in experiment [4] it was 8740 nM; in experiment [5], 6420 nM.

Consider `CN(C)CCNc1c2c(nc3ccc(Cl)cc13)-c1ccccc1C2`, for which the half-inhibitory concentration (IC50) in experiment [1] stood at 1740 nM; in experiment [2], 3490 nM; in experiment [3] it was 3600 nM; in experiment [4] it was 6710 nM; in experiment [5] it was 4960 nM.

For the compound `COc1cc2c(cc1OC)-c1nc3ccc(Cl)cc3c(NCCCN3CCOCC3)c1C2`, the IC50 in experiment [1] worked out at 2230 nM; in experiment [2] it was 4130 nM; in experiment [3], 3800 nM; in experiment [4], 7600 nM; in experiment [5], 2400 nM.

Turning to `CN(C)CCNc1c2c(nc3ccccc13)-c1ccccc1C2`, the IC50 in experiment [1] came out at 610 nM; in experiment [2] it was 930 nM; in experiment [3], 1310 nM; in experiment [4], 2310 nM; in experiment [5] it was 1230 nM.

For the compound `COc1cc2c(cc1OC)-c1nc3ccccc3c(NCCCN3CCOCC3)c1C2`, the IC50 was found to be 2770 nM in experiment [1]; 2520 nM in experiment [2]; 4970 nM in experiment [3]; 3940 nM in experiment [4]; 5000 nM in experiment [5].

As for `c1ccc2c(c1)Cc1c-2nc2ccccc2c1NCCCN1CCOCC1`, the IC50 in experiment [1] is 1430 nM; in experiment [2], 1950 nM; in experiment [3] it was 4730 nM; in experiment [4], 4480 nM; in experiment [5], 4600 nM.

As for `CN(C)CCNc1c2c(nc3ccc(F)cc13)-c1ccccc1C2`, the IC50 in experiment [1] was 1150 nM; in experiment [2] it was 1780 nM; in experiment [3], 3220 nM; in experiment [4], 2590 nM; in experiment [5] it was 2890 nM.

`COc1cc2c(cc1OC)-c1nc3ccc(Cl)cc3c(NCCN(C)C)c1C2`: the IC50 worked out at 2210 nM in experiment [1]; 2220 nM in experiment [2]; 2560 nM in experiment [3]; 3120 nM in experiment [4]; 2550 nM in experiment [5].

With `Cc1ccc2nc3c(c(NCCN(C)C)c2c1)Cc1ccccc1-3`, the IC50 in experiment [1] came to 310 nM; in experiment [2] it was 920 nM; in experiment [3], 1150 nM; in experiment [4] it was 1710 nM; in experiment [5], 1030 nM.

Take `COc1cc2c(cc1OC)-c1nc3ccc(C)cc3c(NCCN(C)C)c1C2`: the IC50 in experiment [1] amounted to 2390 nM; in experiment [2], 2460 nM; in experiment [3], 3010 nM; in experiment [4] it was 2570 nM; in experiment [5] it was 4990 nM.

For the compound `COc1cc2c(cc1OC)-c1nc3ccc(Br)cc3c(NCCCN3CCOCC3)c1C2`, the IC50 amounted to 2640 nM in experiment [1]; 3380 nM in experiment [2]; 5020 nM in experiment [3]; 3970 nM in experiment [4]; 4250 nM in experiment [5].

In the case of `CN(C)CCCNc1c2c(nc3ccc(Cl)cc13)-c1ccccc1C2`, the IC50 was 910 nM in experiment [1]; 1110 nM in experiment [2]; 2300 nM in experiment [3]; 2140 nM in experiment [4]; 2310 nM in experiment [5].

As to `COc1cc2c(cc1OC)-c1nc3ccccc3c(NCCN(C)C)c1C2`, the IC50 in experiment [1] was 1820 nM; in experiment [2], 1360 nM; in experiment [3], 2060 nM; in experiment [4], 3140 nM; in experiment [5] it was 3100 nM.

For the compound `CN(C)CCCNc1c2c(nc3ccccc13)-c1ccccc1C2`, the IC50 in experiment [1] worked out at 310 nM; in experiment [2] it was 950 nM; in experiment [3], 910 nM; in experiment [4], 2600 nM; in experiment [5], 1660 nM.

As to `COc1cc2c(cc1OC)-c1nc3ccc(F)cc3c(NCCCN(C)C)c1C2`, the IC50 in experiment [1] stood at 2860 nM; in experiment [2], 2110 nM; in experiment [3], 3070 nM; in experiment [4], 5230 nM; in experiment [5], 3520 nM.

Consider `Brc1ccc2nc3c(c(NCCCN4CCOCC4)c2c1)Cc1ccccc1-3`, for which the IC50 in experiment [1] came out at 9410 nM; in experiment [2] it was 7500 nM; in experiment [3], 5710 nM; in experiment [4], 6320 nM; in experiment [5], 8570 nM.

Regarding `CC[C@@]1(O)C(=O)OCc2c1cc1n(c2=O)Cc2cc3ccccc3nc2-1` [CAMPTOTHECIN], the IC50 in experiment [1] is 3090 nM; in experiment [2] it was 4270 nM; in experiment [3] it was 2150 nM; in experiment [4] it was 5690 nM; in experiment [5], 5370 nM. The inhibition in vivo at 6 mg/kg in experiment [7] came out at 62.3%.

Consider `Clc1ccc2nc3c(c(NCCCN4CCOCC4)c2c1)Cc1ccccc1-3`, for which the IC50 in experiment [1] is 4320 nM; in experiment [2], 6890 nM; in experiment [3], 7120 nM; in experiment [4], 5900 nM; in experiment [5], 5210 nM.

Take `Cc1ccc2nc3c(c(NCCCN(C)C)c2c1)Cc1ccccc1-3`: the IC50 in experiment [1] is 840 nM; in experiment [2], 860 nM; in experiment [3], 580 nM; in experiment [4], 1190 nM; in experiment [5] it was 1160 nM.

With `COc1cc2c(cc1OC)-c1nc3ccc(C)cc3c(NCCCN3CCOCC3)c1C2`, the IC50 stood at 4620 nM in experiment [1]; 3500 nM in experiment [2]; 7720 nM in experiment [3]; 7460 nM in experiment [4]; 5640 nM in experiment [5].
